{
  "source": "patent US10888588B2",
  "about": "“Directed cardiomyocyte differentiation and ventricular specification of stem cells” (ICAHN SCHOOL OF MEDICINE AT MOUNT SINAI, priority 2013, dated 2021)",
  "key": {"HES2-VCMs": {"system": "HES2-VCMs", "conditions": "H2O2 100 μM, 30 minutes, 37° C.; ratio before stress 1.146", "experimental": "Mitochondrial membrane potential in HES2-VCMs was measured with the potential-sensitive dye JC-1 (Invitrogen). LV-MLC2v-Tdtomato-T2A-Zeo transduced and Zeo-selected HES2-VCMs (30- to 50-day-old) were incubated at 37° C. with 0.5 μM JC-1 in serum free DMEM medium for 15 minutes. To simulate metabolic oxidative stress, hES2-VCMs were treated with hydrogen peroxide (H2O2; 100 μM) for 30 minutes at 37° C., after which JC-1 orange and green fluorescence intensities were measured for mitochondrial membrane potential with a LSM Carl Zeiss 510 Meta microscope."}, "Wnt/β-catenin pathway": {"system": "Wnt/β-catenin pathway", "test": "Directed differentiation to ventricular cardiomyocytes with Wnt inhibition", "type": "cell-based, human", "excerpt": "(§1) As detailed in the following examples, cardiac differentiation was initiated by formation of embryoid bodies (EBs) in suspension culture from hESCs as exemplary stem cells, maintained in feeder-free, serum-free culture. […] In the first phase of the differentiation process (Stage 1; days 2-4.5), the cells were differentiated into primitive streak-mesendoderm and subsequently to cardiac mesoderm by the combinatorial activation of the BMP and Nodal signaling pathways. In the second phase (Stage 2; days 4.5-8) the inhibition of the Wnt/β-catenin pathway by the small molecule IWR-1^29 enhanced the differentiation of the cardiac progenitors to the ventricular cardiomyocyte lineage.\nFor directed cell differentiation, undifferentiated hPSCs were digested into smaller clusters using Dispase (STEMCELL Technologies; 1 mg/ml for 8 minutes at 37° C.) and seeded onto Matrigel™-coated plates at 3×10^4 cells/ml in mTeSR™ 1 medium for 4 days until there was about 80-90% confluence on D0. To initiate cardiac differentiation, hPSCs were digested into single cell suspensions using Accutase (Invitrogen) and cultured in mTeSR™ 1 medium with Matrigel™ (40 μg/ml) with BMP-4 (1 ng/ml, Invitrogen) and Rho kinase inhibitor (ROCK) Inhibitor (10 μM; R&D) under a hypoxic condition with 5% O2. […] Cardiac mesodermal cells developed into functional contracting clusters could be detected as early as day 8. […]"}, "hPSC": {"system": "hPSC", "conditions": "cited from earlier work"}, "hESCs": {"system": "hESCs", "test": "Embryoid body formation from dissociated hESCs", "type": "cell-based, human", "conditions": "EB formation in suspension culture", "excerpt": "as §1"}, "hESC-VCMs": {"system": "hESC-VCMs", "test": "Patch-clamp AP recording and confocal Ca2+ imaging of hESC-VCMs", "type": "cell-based, human", "procedure": "The electrophysiological experiments disclosed in the Examples were performed using the whole-cell patch-clamp technique as previously described.^65-67 To profile chamber-specific subtypes of the hPSC-CMs, action potentials of the myocytes were randomly probed at 37° C. with the patch-clamp technique using an EPC-10 amplifier and Pulse software (Heka Elektronik, Germany), with the current-clamp mode (0.1-0.5 nA for 1-5 ms) under the whole-cell configuration applied. The hPSC-CMs were categorized into nodal-, atrial- or ventricular-like, as previously described.^62,65,66 Voltage-clamp recordings of ionic currents were performed using an automated parallel patch-clamp system (PatchXpress 7000A, Molecular Devices) using standard electrophysiological and pharmacological protocols for isolating the ionic component of interest.\nIntracellular Ca^2+ ([Ca^2+]i) transients were imaged by a spinning disc laser confocal microscope (PerkinElmer) on hPSC-CMs loaded with 1.5 μM X-Rhod-1 (Invitrogen) as previously described^66. After dye loading, experiments were performed at 37° C. in Tyrode's solution containing: 140 mM NaCl, 5 mM KCl, 1 mM MgCl2, 1.25 mM CaCl2, 10 mM HEPES and 10 mM D-glucose at pH 7.4. […] The amplitudes of E[Ca^2+]i are presented as the background corrected pseudo ratio (ΔF/F)=(F−Fbase)/(Fbase−B) where Fbase and F is the measured fluorescence intensity before and after stimulation, respectively, and B is the average background signal from areas adjacent to the targeted cell. The transients rise (Vupstroke) and the transients decay (Vdecay) were subsequently calculated and analyzed.\nInitially, electrophysiological profiles were obtained and analyzed from patch-clamp recordings and Ca^2+-imaging performed on 30- to 50-day-old single cells isolated from cardiogenic EBs."}},
  "data": [
    {"smiles": "OO", "note": "[H2O2, hydrogen peroxide]", "values": [
      {"measurement": "JC-1 orange/green intensity ratio", "setting": "HES2-VCMs", "value": 0.410}
    ]},
    {"smiles": "O=C(Nc1cccc2cccnc12)c1ccc(N2C(=O)[C@@H]3[C@H](C2=O)[C@@H]2C=C[C@H]3C2)cc1", "note": "[IWR-1]", "values": [
      {"measurement": "differentiation of cardiac progenitors to the ventricular cardiomyocyte lineage", "setting": "Wnt/β-catenin pathway; Stage 2, days 4.5-8", "value": "enhanced"},
      {"measurement": "heterogeneity of the hESC-derived cardiomyocytes", "setting": "Wnt/β-catenin pathway; timely inhibition of Wnt/β-catenin pathway", "value": "reduced"}
    ]},
    {"smiles": "COc1ccc(CCC(=O)Nc2nc3ccc(Cl)cc3s2)cc1OC", "note": "[KY02111]", "values": [
      {"measurement": "hPSC-CM per hPSC", "setting": "hPSC; about 4.2×10^6 hPSC-CM from about 6×10^6 seeded per well", "value": 0.7, "unit": "hPSC-CM per hPSC"},
      {"measurement": "yield of CM from hPSC differentiation", "setting": "hPSC; serum- and xeno-free, four hiPSC lines, by inhibiting WNT signaling", "value": "up to 98%"}
    ]},
    {"smiles": "Cc1ccc2c(c1)C(=O)C1(O)CCN(c3ccccc3)C1=N2", "note": "(stereo not shown) [blebbistatin]", "values": [
      {"measurement": "EB formation efficiency", "setting": "hESCs", "value": "significantly increased"},
      {"measurement": "dissociation-induced apoptosis of hESCs", "setting": "hESCs", "value": "inhibited"}
    ]},
    {"smiles": "Cn1c(=O)c2c(ncn2C)n(C)c1=O", "note": "[caffeine]", "values": [
      {"measurement": "caffeine-induced Ca2+ flux (functional sarcoplasmic reticulum)", "setting": "hESC-VCMs", "value": "observed"}
    ]},
    {"smiles": "CC(C)NCC(O)c1ccc(O)c(O)c1", "note": "(stereo not shown) [isoproterenol]", "values": [
      {"measurement": "chronotropic response (spontaneous AP and Ca2+ transient firings)", "setting": "hESC-VCMs; 30- to 50-day-old single cells, β-adrenergic stimulation", "value": "positive chronotropic response"},
      {"measurement": "Ca2+ transient amplitude (ionotropic response)", "setting": "hESC-VCMs; β-adrenergic stimulation, p>0.05", "value": "remained unchanged"}
    ]}
  ]
}
